Test results taken from patent US12503471B2, “Triazatricycle compounds for the treatment of autoimmune disease” (Hoffmann-La Roche Inc., priority 2019, dated 2025).

Molecular target: T1, human TLR9 (Homo sapiens, UniProt Q9NR96)
T1 construct: host or cells: HEK293 (HEK-Blue hTLR9)
T1 sequence (Q9NR96 26-1032): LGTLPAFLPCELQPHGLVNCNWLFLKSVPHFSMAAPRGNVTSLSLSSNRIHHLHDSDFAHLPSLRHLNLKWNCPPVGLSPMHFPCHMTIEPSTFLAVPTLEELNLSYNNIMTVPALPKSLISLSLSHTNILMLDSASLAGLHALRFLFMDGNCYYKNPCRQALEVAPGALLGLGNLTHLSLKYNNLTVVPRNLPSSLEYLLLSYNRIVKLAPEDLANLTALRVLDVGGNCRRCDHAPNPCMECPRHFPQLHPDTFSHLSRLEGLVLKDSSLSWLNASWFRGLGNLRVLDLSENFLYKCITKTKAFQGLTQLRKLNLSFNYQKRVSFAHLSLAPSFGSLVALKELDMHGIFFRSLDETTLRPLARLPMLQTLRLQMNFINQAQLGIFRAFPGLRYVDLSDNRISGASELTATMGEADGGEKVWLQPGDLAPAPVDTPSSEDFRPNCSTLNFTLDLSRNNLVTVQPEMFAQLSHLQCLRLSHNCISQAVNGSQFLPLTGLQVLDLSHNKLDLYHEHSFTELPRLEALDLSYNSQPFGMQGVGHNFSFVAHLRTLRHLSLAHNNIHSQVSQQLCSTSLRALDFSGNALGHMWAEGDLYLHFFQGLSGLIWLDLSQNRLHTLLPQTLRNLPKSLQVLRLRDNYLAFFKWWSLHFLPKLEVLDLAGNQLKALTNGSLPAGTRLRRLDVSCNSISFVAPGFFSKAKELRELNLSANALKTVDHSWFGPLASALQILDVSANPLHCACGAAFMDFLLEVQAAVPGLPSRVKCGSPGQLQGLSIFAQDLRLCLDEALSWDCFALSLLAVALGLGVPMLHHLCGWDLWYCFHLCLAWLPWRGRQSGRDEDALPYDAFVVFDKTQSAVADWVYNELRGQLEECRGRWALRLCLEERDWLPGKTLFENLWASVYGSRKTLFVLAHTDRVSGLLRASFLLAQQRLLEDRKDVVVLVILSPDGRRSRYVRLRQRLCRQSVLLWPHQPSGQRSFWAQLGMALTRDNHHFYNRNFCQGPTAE
Experiment: HEK293-Blue-hTLR-9 cells assay
Assay type: cell-based
Conditions: HEK293-Blue-hTLR9 cells, ODN2006 stimulation, 20 hrs, SEAP reporter; read-out: HEK/hTLR9 IC50
Source text: HEK293-Blue-hTLR-9 Cells Assay:
A stable HEK293-Blue-hTLR-9 cell line was purchased from InvivoGen (Cat. #: hkb-htlr9, San Diego, Calif., USA). These cells were originally designed for studying the stimulation of human TLR9 by monitoring the activation of NF-κB. A SEAP (secreted embryonic alkaline phosphatase) reporter gene was placed under the control of the IFN-β minimal promoter fused to five NF-κB and AP-1-binding sites. The SEAP was induced by activating NF-κB and AP-1 via stimulating HEK-Blue hTLR9 cells with TLR9 ligands. Therefore the reporter expression was declined by TLR9 antagonist under the stimulation of a ligand, such as ODN2006 (Cat. #: tlrl-2006-1, Invivogen, San Diego, Calif., USA), for incubation of 20 hrs. The cell culture supernatant SEAP reporter activity was determined using QUANTI-Blue^TM kit (Cat. #: rep-qbl, Invivogen, San Diego, Calif., USA) at a wavelength of 640 nm, a detection medium that turns purple or blue in the presence of alkaline phosphatase.
HEK293-Blue-hTLR9 cells were incubated at a density of 250,000˜450,000 cells/mL in a volume of 170 μL in a 96-well plate in Dulbecco's Modified Eagle's medium (DMEM) containing 4.5 g/L glucose, 50 U/mL penicillin, […] streptomycin, […] Normocin, 2 mM L-glutamine, 10% (v/v) heat-inactivated fetal bovine serum with addition of 20 μL test compound in a serial dilution in the presence of final DMSO at 1% and 10 μL of 20 uM ODN2006 in above DMEM, perform incubation under 37° C. in a CO2 incubator for 20 hrs. Then 20 μL of the supernatant from each well was incubated with 180 μL Quanti-blue substrate solution at 37° C. for 2 h and the absorbance was read at 620-655 nm using a spectrophotometer. The signaling pathway that TLR9 activation leads to downstream NF-κB activation has been widely accepted, and therefore similar reporter assay was modified for evaluating TLR9 antagonist.

Row | IC50 | Compound
1 | 177 nM | C[C@@H]1CN(c2ccc(C#N)n3nccc23)C[C@@H]2c3ccc(N4C[C@@H]5C[C@H]4CN5)nc3CN12 [Example 21, 4-[(2S,6R)-11-[(1S,4S)-2,5-diazabicyclo[2.2.1]heptan-2-yl]-6-methyl-4,7,10-triazatricyclo[7.4.0.02,7]trideca-1(9),10,12-trien-4-yl]pyrazolo[1,5-a]pyridine-7-carbonitrile]
2 | 316 nM | [2H]c1ccc2c(N3C[C@@H](C)N4Cc5nc(N6CC[C@H](OC)[C@@H](N)C6)ccc5[C@H]4C3)ccc(C#N)c2n1 [Example 14, 5-[(2S,6R)-11-[(3S,4S)-3-amino-4-methoxy-1-piperidyl]-6-methyl-4,7,10-triazatricyclo[7.4.0.02,7]trideca-1(9),10,12-trien-4-yl]-2-deuterio-quinoline-8-carbonitrile]
3 | 232 nM | [2H]c1ccc2c(N3C[C@@H](C)N4Cc5nc(C6CCNCC6)ccc5[C@H]4C3)ccc(C#N)c2n1 [Example 23, 2-Deuterio-5-[(2S,6R)-6-methyl-11-(4-piperidyl)-4,7,10-triazatricyclo[7.4.0.02,7]trideca-1(9),10,12-trien-4-yl]quinoline-8-carbonitrile]
4 | 262 nM | [2H]c1ccc2c(N3C[C@@H](C)N4Cc5nc(N6CCC7(CC6)CNCCO7)ccc5[C@H]4C3)ccc(C#N)c2n1 [Example 18, 2-Deuterio-5-[(2S,6R)-6-methyl-11-(1-oxa-4,9-diazaspiro[5.5]undecan-9-yl)-4,7,10-triazatricyclo[7.4.0.02,7]trideca-1(9),10,12-trien-4-yl]quinoline-8-carbonitrile]
